# Measurements: paper PMC4224572, “Peptidomimetic inhibitors of N-myristoyltransferase from human malaria and leishmaniasis parasites” (Organic & Biomolecular Chemistry, 2014)
# Ends that are not written are not given here.
# Experiments:
# [1] = parameters: method as in earlier work; settings: cited from earlier work
# PvNMT [2] = biological target: T1, PvNMT (Plasmodium vivax, UniProt A5K1A2); test: Fluorogenic NMT inhibition assay, PvNMT; format: biochemical; settings: recombinant enzyme; mean of duplicate or triplicate experiments
# T1 sequence (A5K1A2 1-410): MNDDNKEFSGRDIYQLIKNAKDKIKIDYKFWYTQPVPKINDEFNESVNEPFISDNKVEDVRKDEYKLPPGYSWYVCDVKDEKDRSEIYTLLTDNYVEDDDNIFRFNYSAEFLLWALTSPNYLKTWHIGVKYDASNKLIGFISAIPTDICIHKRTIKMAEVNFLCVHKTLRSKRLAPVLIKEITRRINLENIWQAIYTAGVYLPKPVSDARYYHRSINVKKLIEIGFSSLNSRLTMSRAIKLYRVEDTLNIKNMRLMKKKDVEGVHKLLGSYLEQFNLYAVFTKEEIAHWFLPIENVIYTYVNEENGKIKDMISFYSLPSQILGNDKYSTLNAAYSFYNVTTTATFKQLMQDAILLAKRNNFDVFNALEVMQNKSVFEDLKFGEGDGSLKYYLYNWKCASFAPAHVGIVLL
# Source text: (§1) 2-Methylimidazolyl analogues were synthesized building on the hypothesis that 2-methylimidazole (pK a ∼ 7.9)[18] is a reasonable mimetic for N-terminal Gly in the peptide substrate (pK a ∼ 8.0).[19] To cover a range of basicity, imidazolyl (pK a ∼ 7.0) and amine analogues (pK a ∼ 10.0) were also synthesized, each exploring a range of chain lengths (n) (Table 1). To probe versatility at the C-terminus, primary amides, carboxylic acids, 2-cyclohexylethyl and 2-(1-cyclohexenyl)ethyl amides were incorporated. Using a previously reported fluorogenic assay,[20] inhibitors were tested against the parasitic enzymes and HsNMT1 in order to explore their selectivity against a relevant host enzyme. […] Further reduction of the chain length (11 and 12, n = 8 and 7, respectively) led to loss of detectable activity against Plasmodium NMTs and significant loss of activity against LdNMT and HsNMT1.
# PfNMT = biological target: T2, PfNMT (Plasmodium falciparum, UniProt Q9U419); test: Fluorogenic NMT inhibition assay, PfNMT; format: biochemical; settings: recombinant enzyme; mean of duplicate or triplicate experiments
# T2 sequence (Q9U419 1-410): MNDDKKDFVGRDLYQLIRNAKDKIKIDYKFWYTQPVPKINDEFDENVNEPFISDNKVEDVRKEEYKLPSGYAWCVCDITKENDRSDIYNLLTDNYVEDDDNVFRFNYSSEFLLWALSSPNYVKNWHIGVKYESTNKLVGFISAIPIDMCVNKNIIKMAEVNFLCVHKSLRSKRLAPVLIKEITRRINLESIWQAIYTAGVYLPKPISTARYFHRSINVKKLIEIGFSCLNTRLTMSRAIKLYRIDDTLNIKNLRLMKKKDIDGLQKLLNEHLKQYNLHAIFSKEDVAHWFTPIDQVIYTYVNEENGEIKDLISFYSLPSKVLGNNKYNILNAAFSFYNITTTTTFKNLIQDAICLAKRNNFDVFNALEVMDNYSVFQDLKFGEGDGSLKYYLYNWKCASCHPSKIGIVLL
# Source text: as §1
# LdNMT = test: Fluorogenic NMT inhibition assay, LdNMT; format: biochemical, L. donovani
# Source text: as §1
# HsNMT1 = biological target: T3, HsNMT1 (Homo sapiens, UniProt P30419); test: Fluorogenic NMT inhibition assay, HsNMT1; format: biochemical, H. sapiens; settings: mean of duplicate or triplicate experiments
# T3 sequence (P30419 1-496): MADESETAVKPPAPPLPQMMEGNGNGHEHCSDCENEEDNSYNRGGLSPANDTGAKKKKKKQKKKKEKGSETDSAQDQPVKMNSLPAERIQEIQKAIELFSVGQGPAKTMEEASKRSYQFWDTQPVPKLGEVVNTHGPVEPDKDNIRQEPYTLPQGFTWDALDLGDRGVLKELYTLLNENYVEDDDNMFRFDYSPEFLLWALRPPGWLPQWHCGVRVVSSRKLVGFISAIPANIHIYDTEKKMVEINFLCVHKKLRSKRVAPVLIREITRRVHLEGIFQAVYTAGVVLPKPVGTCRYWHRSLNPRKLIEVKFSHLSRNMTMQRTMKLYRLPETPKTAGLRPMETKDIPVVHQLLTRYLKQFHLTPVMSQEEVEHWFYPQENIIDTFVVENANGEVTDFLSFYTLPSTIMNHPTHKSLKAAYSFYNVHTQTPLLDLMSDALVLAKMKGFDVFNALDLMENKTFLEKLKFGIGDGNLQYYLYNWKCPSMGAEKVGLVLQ
# Source text: 2-Methylimidazolyl analogues were synthesized building on the hypothesis that 2-methylimidazole (pK a ∼ 7.9)[18] is a reasonable mimetic for N-terminal Gly in the peptide substrate (pK a ∼ 8.0).[19] To cover a range of basicity, imidazolyl (pK a ∼ 7.0) and amine analogues (pK a ∼ 10.0) were also synthesized, each exploring a range of chain lengths (n) (Table 1). To probe versatility at the C-terminus, primary amides, carboxylic acids, 2-cyclohexylethyl and 2-(1-cyclohexenyl)ethyl amides were incorporated. Using a previously reported fluorogenic assay,[20] inhibitors were tested against the parasitic enzymes and HsNMT1 in order to explore their selectivity against a relevant host enzyme.
# PvNMT [3] = biological target: T1, PvNMT; test: Kinetic assay and Lineweaver-Burk plot, competitiveness of compound 10; format: biochemical
# Method: Unexpectedly, the electron maps indicated a mixture of ligand structures such that ∼20% of the electron density represents a N-myristoylated 10 product complex with the CoA by-product in LmNMT (Fig. 2D). This is the only structural evidence for a product complex in any N-myristoyltransferase, and captures and supports the proposed mechanism of action of NMT just prior to regeneration of the active enzyme. Kinetic experiments were performed to study 10 both as a potential substrate and as an NMT inhibitor. […] The N-myristoylation of 10 observed above therefore presumably occurs within the crystal where all reagents are present at high effective concentrations, and turnover is blocked by limited egress of products. […]
# 3. Kinetic studies of Compound 10. […]
# 1 / [Sub s tr ate] Rate / [Su b s tr ate]
# No inhibitor 0.6 μM 1.2 μM 2.4 μM
# Figure S3: Kinetic assay and Lineweaver-Burk plot studying the competitiveness of
# (§2) [Substrate] (µM) [S b[Substrate] (µM) tt ]
# Leishmania NMT = test: Substrate characteristics in Leishmania NMT; format: biochemical
# Method: Unexpectedly, the electron maps indicated a mixture of ligand structures such that ∼20% of the electron density represents a N-myristoylated 10 product complex with the CoA by-product in LmNMT (Fig. 2D). This is the only structural evidence for a product complex in any N-myristoyltransferase, and captures and supports the proposed mechanism of action of NMT just prior to regeneration of the active enzyme. Kinetic experiments were performed to study 10 both as a potential substrate and as an NMT inhibitor. […] The N-myristoylation of 10 observed above therefore presumably occurs within the crystal where all reagents are present at high effective concentrations, and turnover is blocked by limited egress of products.
# To probe the degree to which 10 acts as a true peptidomimetic, we investigated the potential to switch from inhibitor to a peptidomimetic substrate. […] In native NMT substrates, N-terminal Gly is preferred to the exclusion of all other residues, with relatively non-sterically demanding residues such as alanine. […]
# as §2
# Hs pp60src(2-9) Compound 10 Compound 27 Compound 28
# Figure S4: Substrate characteristics of H. sapiens p60src(2-16), compound 10 and modified
# inhibitors 27 and 28 in Leishmania NMT.
# CaNMT = system: CaNMT; parameters: method as in PMID 7783114; settings: read-out: KM as CaNMT substrate; cited from earlier work
molecule,measurement,setting,value
Cc1ncc[nH]1 [2-methylimidazole],pKa,[1],~7.9
NCCCCCCCCCC(=O)N[C@@H](CO)C(=O)N[C@@H](CCCCN)C(=O)NCCC1CCCCC1 [Compound 10],IC50,PvNMT [2],680 ± 80 nM
same,IC50,PfNMT,24300 ± 3400 nM
same,IC50,"LdNMT; recombinant enzyme, mean of duplicate or triplicate experiments",24 ± 3 nM
same,"potency against LdNMT, fold higher than 2 (1H-imidazol-1-yl)",LdNMT; relative to compound 2,over 400 fold
same,"potency against LdNMT, fold higher than 6 (2-methyl-1H-imidazol-1-yl)",LdNMT; relative to compound 6,> 20 fold
same,IC50,HsNMT1,60 ± 3 nM
same,Vmax of substrate in presence of inhibitor,PvNMT [3]; 0.6 μM compound 10,20701.0 ± 1047.4
same,Vmax of substrate in presence of inhibitor,PvNMT [3]; 1.2 μM compound 10,19563.0 ± 1520.6
same,Vmax of substrate in presence of inhibitor,PvNMT [3]; 2.4 μM compound 10,21120.3 ± 1651.4
same,mode of inhibition,"PvNMT [3]; kinetic studies, Fig. S3",peptide-competitive inhibitor
same,KM as substrate,Leishmania NMT; Leishmania NMT,Not measurable
same,Vmax as substrate,Leishmania NMT; Leishmania NMT,Not measurable
same,substrate activity,Leishmania NMT; compound 10 tested up to 40 μM,no substrate characteristics were detected
GLYASKLS-NH2 [CaNMT octapeptide substrate],Km,CaNMT,0.6 µM
